Source: patent publication US7521442B2, “Cyclopropyl fused indolobenzazepine HCV NS5B inhibitors” (Bristol-Myers Squibb Company, priority 2006, dated 2009)
Read-outs that look alike come from different tables or passages of the source.

Experiments:
[1] = molecular target: T1, HCV NS5B RdRp genotype 1b (Hepatitis C virus genotype 1b, UniProt Q9WMX2); test: Modified HCV NS5B RdRp enzyme assay (preincubation protocol); assay type: biochemical
T1 construct: The protein was expressed with an 18 amino acid C-terminal truncation to enhance the solubility; made in house; host or cells: E. coli BL21(DE3), pET21a
T1 sequence (Q9WMX2 2420-2992): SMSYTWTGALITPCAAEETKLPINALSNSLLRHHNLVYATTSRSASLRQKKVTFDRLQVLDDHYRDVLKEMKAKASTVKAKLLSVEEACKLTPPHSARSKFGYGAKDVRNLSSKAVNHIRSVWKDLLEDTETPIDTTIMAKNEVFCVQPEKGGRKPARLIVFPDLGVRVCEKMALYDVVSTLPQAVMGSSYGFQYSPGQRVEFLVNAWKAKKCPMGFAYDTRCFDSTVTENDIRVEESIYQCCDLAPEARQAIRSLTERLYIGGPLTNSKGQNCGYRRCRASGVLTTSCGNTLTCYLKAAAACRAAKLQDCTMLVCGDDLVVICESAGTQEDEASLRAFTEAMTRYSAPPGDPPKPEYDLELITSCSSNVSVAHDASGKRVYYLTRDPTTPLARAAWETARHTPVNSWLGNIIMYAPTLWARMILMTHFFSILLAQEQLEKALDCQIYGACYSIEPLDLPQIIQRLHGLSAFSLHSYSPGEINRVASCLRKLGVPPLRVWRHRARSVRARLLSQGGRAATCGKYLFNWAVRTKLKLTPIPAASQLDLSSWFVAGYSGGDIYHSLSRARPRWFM
Procedure: HCV NS5B RdRp cloning, expression, and purification. The cDNA encoding the NS5B protein of HCV, genotype 1b, was cloned into the pET21a expression vector. The protein was expressed with an 18 amino acid C-terminal truncation to enhance the solubility. The E. coli competent cell line BL21(DE3) was used for expression of the protein. Cultures were grown at 37° C. for ˜4 hours until the cultures reached an optical density of 2.0 at 600 nm. The cultures were cooled to 20° C. and induced with 1 mM IPTG. Fresh ampicillin was added to a final concentration of 50 μg/ml and the cells were grown overnight at 20° C.
Cell pellets (3 L) were lysed for purification to yield 15-24 mgs of purified NS5B. The lysis buffer consisted of 20 mM Tris-HCl, pH 7.4, 500 mM NaCl, 0.5% triton X-100, 1 mM DTT, 1 mM EDTA, 20% glycerol, 0.5 mg/ml lysozyme, 10 mM MgCl2, 15 μg/ml deoxyribonuclease I, and Complete TM protease inhibitor tablets (Roche). After addition of the lysis buffer, frozen cell pellets were resuspended using a tissue homogenizer. To reduce the viscosity of the sample, aliquots of the lysate were sonicated on ice using a microtip attached to a Branson sonicator. The sonicated lysate was centrifuged at 100,000×g for 1 hr at 4° C. and filtered through a 0.2 μm filter unit (Corning).
The protein was purified using three sequential chromatography steps: Heparin sepharose CL-6B, polyU sepharose 4B, and Hitrap SP sepharose (Pharmacia). The chromatography buffers were identical to the lysis buffer but contained no lysozyme, deoxyribonuclease I, MgCl2 or protease inhibitor and the NaCl concentration of the buffer was adjusted according to the requirements for charging the protein onto the column. Each column was eluted with a NaCl gradient which varied in length from 5-50 column volumes depending on the column type. After the final chromatography step, the resulting purity of the enzyme is >90% based on SDS-PAGE analysis. The enzyme was aliquoted and stored at −80° C.
Standard HCV NS5B RdRp enzyme assay. HCV RdRp genotype 1b assays were run in a final volume of 60 μl in 96 well plates (Costar 3912). The assay buffer is composed of 20 mM Hepes, pH 7.5, 2.5 mM KCl, 2.5 mM MgCl2, 1 mM DTT, 1.6 U RNAse inhibitor (Promega N2515), 0.1 mg/ml BSA (Promega R3961), and 2% glycerol. All compounds were serially diluted (3-fold) in DMSO and diluted further in water such that the final concentration of DMSO in the assay was 2%. HCV RdRp genotype 1b enzyme was used at a final concentration of 28 nM. A polyA template was used at 6 nM, and a biotinylated oligo-dT12 primer was used at 180 nM final concentration. Template was obtained commercially (Amersham 27-4110). Biotinylated primer was prepared by Sigma Genosys. 3H-UTP was used at 0.6 μCi (0.29 μM total UTP). Reactions were initiated by the addition of enzyme, incubated at 30° C. for 60 min, and stopped by adding 25 μl of 50 mM EDTA containing SPA beads (4 μg/μl, Amersham RPNQ 0007). Plates were read on a Packard Top Count NXT after >1 hr incubation at room temperature.
Modified HCV NS5B RdRp enzyme assay. A modified enzyme assay was performed essentially as described for the standard enzyme assay except for the following: The biotinylated oligo dT12 primer was precaptured on streptavidin-coated SPA beads by mixing primer and beads in assay buffer and incubating at room temperature for one hour. Unbound primer was removed after centrifugation. The primer-bound beads were resuspended in 20 mM Hepes buffer, pH 7.5 and used in the assay at final concentrations of 20 nM primer and 0.67 μg/μl beads. Order of addition in the assay: enzyme (14 nM) was added to diluted compound followed by the addition of a mixture of template (0.2 nM), 3H-UTP (0.6 μCi, 0.29 μM), and primer-bound beads, to initiate the reaction; concentrations given are final. Reactions were allowed to proceed for 4 hours at 30° C.
IC50 values for compounds were determined using seven different [I]. […]

HCV replicon cells = test: HCV replicon FRET assay; assay type: cell-based
Text: FRET Assay Preparation. To perform the HCV FRET screening assay, 96-well cell culture plates were used. The FRET peptide (Anaspec, Inc.) (Taliani et al., Anal. Biochem. 1996, 240, 60-67) contains a fluorescence donor, EDANS, near one end of the peptide and an acceptor, DABCYL, near the other end. The fluorescence of the peptide is quenched by […] resonance energy transfer (RET) between the donor and the acceptor, but as the NS3 protease cleaves the peptide the products are released from RET quenching and the fluorescence of the donor becomes apparent. The assay reagent was made as follows: 5× cell Luciferase cell culture lysis reagent from Promega (#E153A) diluted to 1× with dH2O, NaCl added to 150 mM final, the FRET peptide diluted to 20 uM final from a 2 mM stock.
To prepare plates, HCV replicon cells, with or without a Renilla luciferase reporter gene, were trypsinized and placed into each well of a 96-well plate with titrated test compounds added in columns 3 through 12; columns 1 and 2 contained a control compound (HCV protease inhibitor), and the bottom row contained cells without compound. The plates were then placed in a CO2 incubator at 37° C.
Assays. Subsequent to addition of the test compounds described above (FRET Assay Preparation), at various times the plate was removed and Alamar blue solution (Trek Diagnostics, #00-100) was added per well as a measure of cellular toxicity. After reading in a Cytoflour 4000 instrument (PE Biosystems), plates were rinsed with PBS and then used for FRET assay by the addition of 30 ul of the FRET peptide assay reagent described above (FRET Assay Preparation) per well. The plate was then placed into the Cytoflour 4000 instrument which had been set to 340 excite/490 emission, automatic mode for 20 cycles and the plate read in a kinetic mode. Typically, the signal to noise using an endpoint analysis after the reads was at least three-fold. Alternatively, after Alamar blue reading, plates were rinsed with PBS, 50 ul of DMEM (high glucose) without phenol red was added and plates were then used for luciferase assay using the Promega Dual-Glo Luciferase Assay System.
Compound analysis was determined by quantification of the relative HCV replicon inhibition and the relative cytotoxicity values. To calculate cytoxicity values, the average Alamar Blue fluorescence signals from the control wells were set as 100% non-toxic. The individual signals in each of the compound test wells were then divided by the average control signal and multiplied by 100% to determine […]. To calculate the HCV replicon inhibition values, an average background value was obtained from the two wells containing the highest amount of HCV protease inhibitor at the end of the assay period. These numbers were similar to those obtained from naive Huh-7 cells.
The background numbers were then subtracted from the average signal obtained from the control wells and this number was used as 100% activity. The individual signals in each of the compound test wells were then divided by the averaged control values after background subtraction and multiplied by 100% to determine percent activity. EC50 values for a protease inhibitor titration were calculated as the concentration which caused a 50% reduction in FRET or luciferase activity. The two numbers generated for the compound plate, percent cytoxicity and percent activity were used to determine compounds of interest for further analysis.

COc1ccc2c(c1)C1CC1(C(=O)N1CC(O)C1)Cn1c-2c(C2CCCCC2)c2ccc(C(=O)NS(=O)(=O)N(C)C)cc21 (stereo not shown) [drawing 28]
IC50 [1]: 1 to 500 nM

COc1ccc2c(c1)C1CC1(C(=O)N1CC(O)(C(F)(F)F)C1)Cn1c-2c(C2CCCCC2)c2ccc(C(=O)NS(=O)(=O)N(C)C)cc21 (stereo not shown) [drawing 23]
EC50 (HCV replicon cells; Hepatitis C virus): 1 to 500 nM
IC50 [1]: 1 to 500 nM

COc1ccc2c(c1)C1CC1(C(=O)N1CC(O)(C3CC3)C1)Cn1c-2c(C2CCCCC2)c2ccc(C(=O)NS(=O)(=O)N(C)C)cc21 (stereo not shown) [drawing 24]
EC50 (HCV replicon cells; FRET assay): 1 to 500 nM
IC50 [1]: 1 to 500 nM

COc1ccc2c(c1)C1CC1(C(=O)N1CC(O)(c3ccc(F)cc3)C1)Cn1c-2c(C2CCCCC2)c2ccc(C(=O)NS(=O)(=O)N(C)C)cc21 (stereo not shown)
EC50 (HCV replicon cells; Hepatitis C virus): 1 to 500 nM
IC50 [1]: 1 to 500 nM

COc1ccc2c(c1)C1CC1(C(=O)N1CC(C)(O)C1)Cn1c-2c(C2CCCCC2)c2ccc(C(=O)NS(=O)(=O)N(C)C)cc21 (stereo not shown)
EC50 (HCV replicon cells; Hepatitis C virus): 1 to 500 nM
IC50 [1]: < 20 nM

COc1ccc2c(c1)C1CC1(C(=O)N1CC(O)(C(F)(F)F)C1)Cn1c-2c(C2CCCCC2)c2ccc(C(=O)NS(=O)(=O)N(C)C)cc21 (stereo not shown) [drawing 25]
EC50 (HCV replicon cells; FRET assay): 1 to 500 nM
IC50 [1]: 1 to 500 nM

COc1ccc2c(c1)C1CC1(C(=O)N1CC(O)(C(C)C)C1)Cn1c-2c(C2CCCCC2)c2ccc(C(=O)NS(=O)(=O)N(C)C)cc21 (stereo not shown)
EC50 (HCV replicon cells; Hepatitis C virus): 1 to 500 nM
IC50 [1]: 1 to 500 nM

COc1ccc2c(c1)C1CC1(C(=O)N1CC(O)(c3ccccc3)C1)Cn1c-2c(C2CCCCC2)c2ccc(C(=O)NS(=O)(=O)N(C)C)cc21 (stereo not shown)
EC50 (HCV replicon cells; Hepatitis C virus): 1 to 500 nM
IC50 [1]: 1 to 500 nM

COc1ccc2c(c1)C1CC1(C(=O)N1CC(O)(C3CC3)C1)Cn1c-2c(C2CCCCC2)c2ccc(C(=O)NS(=O)(=O)N(C)C)cc21 (stereo not shown) [drawing 21]
EC50 (HCV replicon cells; Hepatitis C virus): 1 to 500 nM
IC50 [1]: 1 to 500 nM

COc1ccc2c(c1)C1CC1(C(=O)N1CC(O)C1)Cn1c-2c(C2CCCCC2)c2ccc(C(=O)NS(=O)(=O)N(C)C)cc21 (stereo not shown) [drawing 17]
EC50 (HCV replicon cells; Hepatitis C virus): 1 to 500 nM
IC50 [1]: 1 to 500 nM

COc1ccc2c(c1)C1CC1(C(=O)N1CC(O)C1)Cn1c-2c(C2CCCCC2)c2ccc(C(=O)NS(=O)(=O)C3CC3)cc21 (stereo not shown) [drawing 16]
EC50 (HCV replicon cells; Hepatitis C virus, FRET assay, read-out: EC50): 1 to 500 nM
IC50 [1]: 1 to 500 nM

COc1ccc2c(c1)C1CC1(C(=O)N1CC(O)C1)Cn1c-2c(C2CCCCC2)c2ccc(C(=O)NS(=O)(=O)C3CC3)cc21 (stereo not shown) [drawing 27]
IC50 [1]: 1 to 500 nM
